Assay results published in EP0226508A1, “Indolo[3,2-c]quinoline derivatives, process for their preparation and their anti-tumour activity” (priority 1985, dated 1987).
Where two headings read alike, the source gives them in different places.

How the values were obtained:
[1] = system: souris consanguines DBA₂ saines; assay: Acute toxicity, single intraperitoneal injection in healthy mice, mortality at day 7; type: in vivo; details: single i.p. injection, 50 mg/kg
[2] = system: lignée tumorale leucémie L 1210; assay: In vitro cytotoxic activity on L 1210 leukemia cell culture (inhibition of cell proliferation); type: cell-based; details: L 1210 culture in exponential growth, 37°C, after 48 hours of contact, read-out: ID 50 (the source's name)
Procedure: 1) In vitro : (PAOLETTI et al., Chem. Biol. Interaction, 1979, 25, 45-58).
L'activité cytotoxique des composés de l'invention a été évaluée par des essais in vitro. Ces essais consistent à ajouter des concentrations croissantes du composé à tester à une culture cellulaire de la lignée tumorale leucémie L 1210 en phase exponentielle de croissance. Les cellules sont incubées à 37°C dans une étuve à CO₂ et comptées toutes les 24 heures. Le calcul de l'ID₅₀ (concentration du produit exprimée en micromole 1⁻¹ qui inhibe la prolifération cellulaire à 50 p. 100) est effectuée après 48 heures de contact. Ainsi déterminées les ID₅₀ des composés de l'invention sont rassemblées dans le tableau ci-après.

leucémie P 388 = assay: animal or person; type: in vivo, souris hybrides CDF 1; details: for Nombre de survivants: survivors at J 40; for Variation pondérale en g: in vivo, ip
Excerpt: (§1) L'activité antitumorale a été testée in vivo sur différentes tumeurs selon le protocole général suivant:
(§2) Toutes les souris mâles ou femelles sont inoculées par voie intrapéritonéale au jour Jo avec une quantité déterminée de cellules tumorales viables, variable selon la tumeur.
(§3) Elles sont ensuite réparties en différents lots. Chaque lot correspondant aux animaux traités par le produit à tester à une dose déterminée est composé de 10 souris. Dans ce cas, le produit à tester est dissous dans l'eau distillée et il est administré, pendant n jours (J₁-Jn) variables selon le protocole choisi, par voie intrapéritonéale à raison de 0,1 ml par 10 g de poids des souris traitées, les doses du produit administré étant précisées dans les tableaux ci-dessous.
(§4) Le lot "contrôle négatif", correspondant aux animaux qui ne sont pas traités par un produit, comprend 2 √N animaux, N étant égal au nombre total de souris traitées par un produit.
(§5) Enfin, tous les essais sont conduits parallèlement à l'étude d'un lot appelé "contrôle positif" de 10 animaux qui est traité par une molécule active, variable selon le protocole choisi, dans les mêmes conditions que les lots traités par le produit à tester, afin de valider l'essai.
(§6) L'activité antitumorale est évaluée en considé-rant l'augmentation du temps de survie des animaux traités par rapport à celui des animaux du lot "contrôle négatif" selon la formule : [formula]
(§7) Un composé est considéré comme étant actif lorsque la valeur du rapport T/C est égale ou supérieure à 125 % selon le protocole retenu. Il est toxique lorsque cette valeur est égale ou inférieure à 85 %. Le produit est également considéré comme toxique lorsque la variation pondérale, exprimée en grammes et calculée par la formule : Poids moyen du lot mesuré au jour 5 -poids moyen du même lot au jour 1 est égale ou inférieure à - 4 g.
a) Test de la leucémie P 388 (GERAN et al., Cancer Chemother, 1972, 2, 07-57).
Les essais sont effectués avec des souris hybrides CDF 1 inoculées par voie intrapéritonéale avec 10⁶ cellules leucémiques de la lignée P 388. Le composé à tester est administré pendant 5 jours (J1-J5). Le contrôle positif du test est le 5-fluorouracile qui est administré dans les mêmes conditions. Le nombre d'animaux survivants est évalué au jour J 40. Un composé est considéré comme étant actif lorsque le rapport T/C est supérieur à 127 %.

leucémie L 1210 = assay: In vivo antitumour activity, L 1210 leukemia test; design: species or system souris hybrides CDF₁; details: L 1210, CDF₁ mice; for Nombre de survivants: survivors at J 30
Excerpt: as §1, §2, §3, §4, §5, §6, §7
b) Test de la leucémie L 1210 (GERAN et al., Cancer Chemother, 1972, 2, 07-57).
Les essais sont effectués avec des souris hybrides CDF₁ inoculées avec 10⁵ cellules leucémiques de la lignée L 1210. Le composé à tester est administré pendant 5 jours (J₁-J₅).Le contrôle positif du test est le 5-fluorouracile administré dans les mêmes conditions. Le nombre d'animaux survivants est évalué au jour J 30. Un composé est considéré comme étant actif lorsque le rapport T/C est supérieur ou égal à 125 %.

mélanome B 16 = assay: In vivo antitumour activity, B 16 melanoma test; design: species or system souris hybrides BDF₁; details: for Jour médian de survie / T/C % / Nombre de survivants: B 16 melanoma; for Nombre de survivants: survivors at J 60; for Variation pondérale en g: in vivo, ip
Excerpt: as §1, §2, §3, §4, §5, §6
Le produit est également considéré comme toxique lorsque la variation pondérale, exprimée en grammes et calculée par la formule : Poids moyen du lot mesuré au jour 5 -poids moyen du même lot au jour 1 est égale ou inférieure à - 4 g.
Les essais sont effectués avec des souris hybrides BDF₁ inoculées avec 0,5 ml d'un homogénat de mélanome B 16 réalisé à partir de 1 g de tumeur dans 10 ml de sérum physiologique. Le composé à tester est administré pendant 9 jours (J₁-J₉).Le contrôle positif du test est le Cis-Platine administré dans les mêmes conditions. Le nombre d'animaux survivants est évalué au jour J 60.

[3] = Mus musculus, P388, ip, P 388, CDF 1 mice, 5 mg/kg i.p. J1-J5, read-out: T/C %
[4] = Mus musculus, P388, ip, P 388, CDF 1 mice, 10 mg/kg i.p. J1-J5, read-out: T/C %
[5] = Mus musculus, P388, ip, P 388, CDF 1 mice, 20 mg/kg i.p. J1-J5, read-out: T/C %
[6] = P 388, CDF 1 mice, 5 mg/kg i.p. J1-J5
[7] = P 388, CDF 1 mice, 10 mg/kg i.p. J1-J5
[8] = P 388, CDF 1 mice, 20 mg/kg i.p. J1-J5
[9] = BDF₁ mice, 2,5 mg/kg i.p. J1-J9
[10] = Mus musculus, P388, ip, P 388, CDF 1 mice, 2,5 mg/kg i.p. J1-J5, read-out: T/C %
[11] = P 388, CDF 1 mice, 2,5 mg/kg i.p. J1-J5

Row | Compound | mortalité évaluée au septième jour après l'administration [1] | IC50 ([2]; Mus musculus, L1210) [nM] | response vs control in vivo at 5 mg/kg (leucémie P 388; [3]) [%] | response vs control in vivo at 10 mg/kg (leucémie P 388; [4]) [%] | response vs control in vivo at 20 mg/kg (leucémie P 388; [5]) [%] | Nombre de survivants (leucémie P 388; [6]) | Nombre de survivants (leucémie P 388; [7]) | Nombre de survivants (leucémie P 388; [8]) | Variation pondérale en g (leucémie P 388; 5 mg/kg) | Variation pondérale en g (leucémie P 388; 10 mg/kg) | Variation pondérale en g (leucémie P 388; 20 mg/kg) | Jour médian de survie (leucémie L 1210; 5 mg/kg i.p. J1-J5) | T/C % (leucémie L 1210; 5 mg/kg i.p. J1-J5) [%] | Nombre de survivants (leucémie L 1210; 5 mg/kg i.p. J1-J5) | Jour médian de survie (leucémie L 1210; 10 mg/kg i.p. J1-J5) | T/C % (leucémie L 1210; 10 mg/kg i.p. J1-J5) [%] | Nombre de survivants (leucémie L 1210; 10 mg/kg i.p. J1-J5) | response vs control in vivo at 2.5 mg/kg (leucémie P 388; [10]) [%] | Nombre de survivants (leucémie P 388; [11]) | also measured
1 | CCN(CC)CCCNc1nc2ccccc2c2c1c1cc(O)ccc1n2C [Dérivé N°3] | aucune mortalité | 60 | 155 | 147 | 149 | 0 | 0 | 0 | + 1,0 g | - 0,6 g | - 2,2 g | 10,6 | 129 | 0 | 11,3 | 138 | 0 | – | – | Jour médian de survie (mélanome B 16; [9]): 36; T/C % (mélanome B 16; [9]): 138%; Nombre de survivants (mélanome B 16; [9]): 0
2 | CN(C)CCCNc1nc2ccccc2c2[nH]c3ccc(O)cc3c12 [Dérivé N°12, (diméthylamino-3 propylamino)-6 hydroxy-8 11-H indolo [3,2-c]quinoléine] | aucune mortalité | 80 | 155 | 141 | – | 0 | 0 | – | - 1,2 g | - 1,7 g | – | – | – | – | – | – | – | 141 | 0 | response vs control in vivo at 0.625 mg/kg (leucémie P 388; Mus musculus, P388, ip, P 388, CDF 1 mice, 0,625 mg/kg i.p. J1-J5, read-out: T/C %): 129%; response vs control in vivo at 1.25 mg/kg (leucémie P 388; Mus musculus, P388, ip, P 388, CDF 1 mice, 1,25 mg/kg i.p. J1-J5, read-out: T/C %): 130%; Nombre de survivants (leucémie P 388; P 388, CDF 1 mice, 0,625 mg/kg i.p. J1-J5): 0; Nombre de survivants (leucémie P 388; P 388, CDF 1 mice, 1,25 mg/kg i.p. J1-J5): 0
3 | Oc1ccc2[nH]c3c4ccccc4nc(NCCCN4CCOCC4)c3c2c1 [Dérivé N°15, hydroxy-8 (morpholino-3 propylamino)-6 11-H indolo[3,2-c]quinoléine] | aucune mortalité | 280 | 130 | – | – | 0 | – | – | - 1,1 g | – | – | – | – | – | 10,2 | 129 | 0 | 124 | 0 | –
4 | Oc1ccc2[nH]c3c4ccccc4nc(NCCCN4CCCCC4)c3c2c1 [Dérivé N°16, hydroxy-8 (pipéridino-3 propylamino)-6 11-H indolo[3,2-c]quinoléine] | aucune mortalité | 180 | 133 | 130 | 77 | – | 0 | 0 | - 1,7 g | - 2,5 g | - 4,2 g | 10 | 126 | 0 | 10,4 | 131 | 0 | 140 | 0 | Jour médian de survie (leucémie L 1210; 20 mg/kg i.p. J1-J5): 10,2; T/C % (leucémie L 1210; 20 mg/kg i.p. J1-J5): 129%; Nombre de survivants (leucémie L 1210; 20 mg/kg i.p. J1-J5): 0
5 | (éthylamino-3 propylamino)-6 hydroxy-8 11-H indolo[3,2-c]quinoléine [Dérivé N°14] | aucune mortalité | – | – | – | – | 0 | – | – | + 1,7 g | – | – | – | – | – | – | – | – | – | 0 | IC50 [2]: 1400 nM; Jour médian de survie (leucémie P 388; [6]): 14,0; T/C % (leucémie P 388; [6]): 127%; Jour médian de survie (leucémie P 388; [11]): 14,0; T/C % (leucémie P 388; [11]): 127%; Jour médian de survie (mélanome B 16; BDF₁ mice, 5 mg/kg i.p. J1-J9): 34,25; T/C % (mélanome B 16; BDF₁ mice, 5 mg/kg i.p. J1-J9): 123%; Jour médian de survie (mélanome B 16; BDF₁ mice, 20 mg/kg i.p. J1-J9): 38,75; T/C % (mélanome B 16; BDF₁ mice, 20 mg/kg i.p. J1-J9): 139%; Nombre de survivants (mélanome B 16; BDF₁ mice, 20 mg/kg i.p. J1-J9): 0; Variation pondérale en g (mélanome B 16; 5 mg/kg): - 0,2 g; Variation pondérale en g (mélanome B 16; 20 mg/kg): - 1,3 g
